# Results reported in patent publication US6452005B1, “JAK-3 inhibitors for treating allergic disorders” (Parker Hughes Institute, priority 1999, dated 2002).
# Tests used:
# SYK = SYK activation in RBL-2H3 mast cells after IgE receptor crosslinking; conditions: 30 μM
# Procedure: Cells were lysed at the indicated time points, and SYK immune complexes were subjected to kinase assays in the presence of cold ATP followed by APT immunoblotting (upper panels in 8C & 8D) as well as to SYK Western blot analysis (lower panels in 8C & 8D).
# Immune-Complex Kinase Assays and Western Blot Analyses of Mast Cell Lysates. […] Cells were harvested, lysed (10 mM Tris pH 7.6, 100 mM NaCl, 1% Nonidet P-40, 10% glycerol, 50 mM NaF, 100 mM Na3VO4, 50 mg/ml phenylmethylsulfonyl fluoride, 10 mg/ml aprotonin, 10 mg/ml leupeptin), and the kinases were immunoprecipitated from the lysates, as reported (Uckun et. al., 1995, Science, 267:886-891; Uckun et. al., 1996, Science, 273:1096-1100). […] Immunoprecipitations, and immunoblotting using the ECL chemiluminescence detection system (Amersham Life Sciences) were conducted as described previously (Uckun et. al., 1996, Science, 273:1096-1100).
# LYN = target: T1, LYN (Homo sapiens, UniProt P07948); assay: Immune complex kinase assay, LYN from NALM-6 cells; type: biochemical; conditions: concentrations as high as 350 μM
# T1 construct: LYN was immunoprecipitated from whole cell lysates of NALM-6 human leukemia cells; endogenous in cells; host or cells: NALM-6 human B-lineage ALL cells
# [1] = system: JAK3-dependent STAT activation; assay: EMSA, IL-2 triggered STAT activation in 32Dc11/IL2Rβ cells; type: cell-based
# Procedure: Electrophoretic Mobility Shift Assays (EMSAs). EMSAs were performed to examine the effects of dimethoxyquinazoline compounds on cytokine-induced STAT activation (Goodman et. al., 1998). […] Cells were collected after 15 minutes and resuspended in lysis buffer (100 mM Tris-HCl pH 8.0, 0.5% NP-40, 10% glycerol, […], 0.1 mM NaVO3, 50 mM NaF, 150 mM NaCl, 1 mM DTT, 3 μg/ml Aprotinin, 2 μg/ml Pepstatin A, 1 μg/ml Leupeptin and 0.2 mM PMSF). Lysates were precleared by centrifugation for 30 min. Cell extracts (approximately 10 μg) were incubated with 2 μg of poly(dI-dC) for 30 minutes, followed by a 30 minutes incubation with 1ng of poly. nucleotide kinase-^32P labeled double stranded DNA oligonucleotide representing the IRF-1 STAT DNA binding sequence (Santa Cruz Biotechnology, Santa Cruz, Calif.). Samples were resolved by non-denaturing PAGE and visualized by autoradiography.
# human mast cells = conditions: IgE-sensitized, anti-IgE challenge, 30 minutes exposure
# Procedure: Human Mast Cells: Cells from human fetal livers (16 to 21 weeks of gestational age) were cultured for 5 weeks in the presence of 50 ng/ml rhSCF, 2 ng/ml rhlL-4 (Xia et. al., 1997, J. Immunol., 159:2911-2921). Culture medium was replaced with fresh medium once a week for the first 2 weeks and twice a week thereafter. At the end of the 5 weeks, the fetal liver derived cell cultures contained>70% mast cells, based on tryptase staining (Irani et. al., 1989, J. Histochem. Cytochem, 37:1509-1515).
# Fetal liver derived human mast cells were resuspended in tyrode buffer containing calcium and magnesium and challenged with anti-FcεRI antibody 22E7 for 15 minutes. […]
# Leukotriene (LT) C4 levels were estimated in cell free supernatants by immunoassay (Malaviya et. al., 1993, J. Biol. Chem., 268:4939-4944). […] Tryptase levels were quantitated in cell free supernatants and pellets of fetal liver derived human mast cells as has been described in detail (Xia et. al., 1997, J. Immunol., 159:2911-2921).
# Fetal liver derived human mast cells were cultured in presence of SCF and IL-4 for 5 weeks. […] The FcεRI receptors of fetal liver derived human mast cells were crosslinked with anti-IgE and the resulting mast cell degranulation (i.e., β-tryptase) (Xia et. al., 1997, J. Immunol., 159:2911-2921) and LTC4 release (Malaviya et. al., 1993, J. Biol. Chem., 268:4939-4944) were quantitated.
# [2] = system: mouse bone marrow mast cells; conditions: data not shown
# RBL-2H3 mast cells = assay: IgE/antigen-induced degranulation and mediator release; type: cell-based, rat; conditions: 1 h preincubation, DNP-BSA challenge; at ≧30 μM
# From the text: Vehicle treated control RBL-2H3 cells released 45.1±3.1% of their hexosaminidase contents after DNP-BSA challenge. […] Vehicle treated control cells released 11.3±1.3 pg LTC4, and 160±33.0 pg TNFα/10^6 mast cells. The results on LTC4 and TNFα release are expressed as percent of maximum control release from vehicle treated control mast cells. The data points represent the mean±SEM values obtained from 3-6 independent experiments. […] *P<0.05 and **P<0.0001 compared to control as determined by Student's t test.
# Supernatants were removed and saved.
# T1 sequence (P07948 whole entry): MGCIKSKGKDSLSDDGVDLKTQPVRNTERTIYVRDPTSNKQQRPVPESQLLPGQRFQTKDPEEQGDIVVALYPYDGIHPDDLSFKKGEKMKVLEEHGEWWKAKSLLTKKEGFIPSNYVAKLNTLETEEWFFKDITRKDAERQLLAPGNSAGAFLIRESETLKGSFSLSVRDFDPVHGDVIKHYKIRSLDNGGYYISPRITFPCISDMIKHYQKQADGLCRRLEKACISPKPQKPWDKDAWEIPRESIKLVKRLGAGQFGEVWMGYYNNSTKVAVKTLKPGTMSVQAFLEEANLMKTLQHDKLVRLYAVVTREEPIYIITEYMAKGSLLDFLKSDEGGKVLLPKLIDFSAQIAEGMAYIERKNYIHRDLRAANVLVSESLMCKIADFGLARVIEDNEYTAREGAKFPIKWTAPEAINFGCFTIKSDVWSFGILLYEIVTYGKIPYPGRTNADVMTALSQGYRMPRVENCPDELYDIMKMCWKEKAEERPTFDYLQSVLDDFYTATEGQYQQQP
smiles,measurement,setting,value
"COc1cc2ncnc(Nc3ccc(O)cc3)c2cc1OC [WHI-P131, 4-(4′-Hydroxylphenyl)-amino-6,7-dimethoxyquinazoline]",SYK activation after IgE receptor/FcεRI crosslinking,SYK,did not prevent
same,effect on enzymatic activity of LYN,LYN,did not affect
same,JAK3-dependent STAT activation after stimulation with IL-2,"[1]; 10 μg/ml, 32Dc11/IL2Rβ cells",inhibited
same,IL-2 triggered JAK-3-dependent STAT activation,[1]; 100 μg/ml in FIG. 6E legend,inhibited
same,release of LTC4,human mast cells,inhibited
same,release of β-tryptase,human mast cells,inhibited
same,IgE receptor/FcεRI-mediated release of LTC4,[2],markedly reduced
same,IgE receptor/FcεRI-mediated release of histamine,[2],markedly reduced
same,LTC4 release,RBL-2H3 mast cells,near to complete inhibition
same,TNFα release,RBL-2H3 mast cells,near to complete inhibition
same,β-hexosaminidase release (degranulation),RBL-2H3 mast cells,near to complete inhibition
